Experimental data: patent publication US11998008B2, “Pesticides and methods of controlling pests” (The State of Israel, Ministry of Agriculture & Rural …, priority 2017, dated 2024)

Assays:
A. alternata = assay: Fungicidal activity assay on PDA in sealed Petri dish (growth inhibition and mortality); assay type: cell-based, Alternaria alternata; settings: Alternaria alternata, NA + number = still viable in the highest concentration tested (given as >), read-out: M - Mortality, minimal concentration that killed the fungus
Description: In exemplary procedures, the fungicidial activity of the compounds listed in Table 2 were examined by activity assays as follow: Petri dishes, 90 mm in diameter, with air volume of 80 mL, contained 10-12 mL of growth medium comprising potato dextrose agar (PDA) (Acumedia, Lansing, Michigan, USA) amended with tetracycline at 12 μg/mL. Each compound was placed on a disconnected cover from an Eppendorf tube that was located in the middle of the Petri dish and a hyphae-containing plug of each test fungus was added to the culture plate. In exemplary procedures, the tested compounds trans-2-heptenal, trans-2-octenal were tested in comparison with octanal, trans-2-octen-1-ol, methyl trans-2-octenoate, trans-3-octen-2-one and 3-pentenenitrile. In addition, cyclic ketones as 2-cyclopenten-1-one, 2-cyclohexen-1-one and α-tetralone were also examined. Then, the culture plate was sealed with parafilm and incubated at room-temperature for 2 days, after which the growth of the test fungi in those dishes was compared with those in the test compound-free control dishes. At the end of the assay, the viability of each test fungus was evaluated by transferring inoculum plugs to fresh PDA plates and observing the growth that developed within the next 2 days. The test fungi used in this study included but were not limited to Alternaria alternata, Botrytis cinerea, Sclerotinia rolfsii, Penicillium digitatum, Fusarium oxysporum f. sp. radicis-cucumerinum and Rhizoctonia solani.

R. solani = assay: microbe, parasite or virus in culture; assay type: cell-based; settings: Rhizoctonia solani; R. solani; NA + number = still viable in the highest concentration tested (given as >); read-out: M - Mortality, minimal concentration that killed the fungus
test fungi = assay: Fungicidal activity assay on PDA, summaries over the test fungi; assay type: cell-based; settings: over the fungi tested
chlamydospores of Forl = assay: Open field experiment in sandy soil; assay type: in vivo, Fusarium oxysporum f sp. radicis-lycopersici; settings: emulsion, 54 ppm active compound, 6 days
Description: (§1) In this experiment, an emulsions of trans-2-octenal (25% active compound) such as those described in Example 9 were used. The soil was inoculated with chlamydospores of Forl and sclerotia of S. rolfsii. Five gram of soil, highly inoculated with chlamydospores were wrapped in nylon tights and buried in the field at depths of 10, 30, and 50 cm. Tea bags containing 50 S. rolfsii sclerotia were prepared as described above and buried similarly. After 6 days, trans-2-octenal emulsion, at concentration of 54 ppm (active compound) was applied using the irrigation system. The same conditions were applied to a control plot except that the plot was irrigated with tap water without the compound. The plots were left open during the time of the experiment. After 6 days, the pathogens were removed from the soil and their viability was examined using PDA+tet culture plates. […] As shown in these figures, elimination of both phytopathogenic fungi occurred at the lowest depth of 10 cm.

sclerotia of S. rolfsii = assay: Open field experiment in sandy soil; assay type: in vivo, Sclerotium rolfsii; settings: emulsion, 54 ppm active compound, 6 days
Description: as §1

Solanum nigrum seeds = assay: Viability of weed seeds buried in sandy soil; assay type: in vivo; settings: 54 ppm of emulsion, depth 10 cm, 6 days in soil, evaluated 6 days after resowing
Description: The effect of trans-2-octenal was also examined on the weed Solanum nigrum. To this end, 20 seeds of this weed were put in tea bags and buried in sandy soil at the depth of 10 cm. Six (6) days later, 54 ppm of emulsion of trans-2-octenal were applied via the irrigation system. After additional 6 days the seeds were removed from the soil and sown in fresh loam pots. A control experiment was performed as above except that the seeds were irrigated with tap water without the compound. The viability of the seeds was evaluated after 6 days.

Meloidogyne javanica J2s = assay: Greenhouse nematocidal experiment with susceptible tomato plants in inoculated loam; assay type: in vivo; settings: 30 ppm in soil, tomato harvested after 8 weeks
Description: The activity of trans-2-octenal against nematodes was examined in a greenhouse experiment using stage 2 juveniles of the rot-knot nematode Meloidogyne javanica. […] After 2 days, the inoculated soil was treated with 30 ppm of trans-2-octenal and incubated for additional 5 days. Then, susceptible tomato plants were planted, and allowed to grow in a growing chamber for 8 weeks. At the end of the experiment, the plants, along with their root systems, were harvested from their pots and evaluated for incidence of root galling. In addition, M. javanica eggs were extracted from each root and counted, and the number of eggs per gram root was calculated. As shown in FIGS. 14A-14D, trans-2-octenal reduced the galling index and the number of eggs per gram root. […] The activity of 2-cyclohexen-1-one against nematodes was examined in a greenhouse experiment using stage 2 juveniles of the rot-knot nematode Meloidogyne javanica. The experiment was performed as described for trans-2-octenal. […] After 2 days, the inoculated soil was treated with 15 or 31 ppm of 2-cyclohexen-1-one and incubated for additional 5 days. Then, susceptible tomato plants were planted, and allowed to grow in a growing chamber for 8 weeks. At the end of the experiment, the plants, along with their root systems, were harvested from their pots and evaluated for incidence of root galling. In addition, M. javanica eggs were extracted from each root and counted, and the number of eggs per gram root was calculated.

[1] = tested on: lettuce seedling strain Raviv; settings: in vivo, 11 days
Description: (§2) An experiment in a larger scale was performed in loam soil in which the seedling were planted directly in the treated plot. The soil was treated with 0, 25, 50, 100, 200, 400, 800, and 1,600 ppm of emulsion of trans-2-octenal. The compound was applied using the irrigation system. A day later, tomato seedling strains Ikram and Abigail and lettuce seedling strain Raviv (10 seedlings each) were planted into the treated soil of each concentration. Eleven days later, the number of viable seedlings was counted.

tomato strain Ikram = settings: in vivo, 11 days
Description: as §2

## CCCCC/C=C/C=O [trans-2-octenal]
A. alternata
  MFC: 12.5 mg/L
R. solani
  MFC: 6.25 mg/L
Test fungi
  concentrations that completely inhibited the fungi growth and killed the fungi: 6.25-50 ppm
Chlamydospores of Forl; 30 and 50 cm depth
  viability of Forl chlamydospores: No elimination
Chlamydospores of Forl; depth 10 cm, open plot
  viability of Forl chlamydospores: elimination
Sclerotia of S. rolfsii; 30 and 50 cm depth
  viability of S. rolfsii sclerotia: No elimination
Sclerotia of S. rolfsii; depth 10 cm, open plot
  viability of S. rolfsii sclerotia: elimination
Solanum nigrum seeds
  viability of the seeds: eliminated seeds viability
Meloidogyne javanica J2s
  galling index: reduced
  number of eggs per gram root: reduced
[1]
  concentration at which significant phytotoxic effect occurred: 400 ppm
Tomato strain Ikram
  concentration at which phytotoxic effect was displayed: 800 ppm
